Starred links: 1 amine or outer side, 2 acyl side, 3 side chain; linkers in the order of their positions; H or OH if unused. Positions of bridges follow the written chain, without caps; N, C: chain ends. Non-standard residues stand in square brackets, D forms with d. Residues, ends and D or L forms follow the SMILES beside them. ξ: configuration not given here. *: point of attachment. Me3N+(CH2)2O(CH2)2O(CH2)2CO = C[N+](C)(C)CCOCCOCCC(=O)*; CH2CH2OCH2CH2OCH2CH2NMe3+ = C[N+](C)(C)CCOCCOCC*; Trp(7-Me) = Cc1cccc2c(C[C@H](N)C(=O)O)c[nH]c12; Decanoyl(3,6,9-trioxa) = COCCOCCOCC(=O)*; CH2CH2OCH2CH2NMe3+ = C[N+](C)(C)CCOCC*; 2Nal = N[C@@H](Cc1ccc2ccccc2c1)C(=O)O; AEF = NCCOc1ccc(C[C@H](N)C(=O)O)cc1; X24 = C[N+](C)(CCN[*:1])CC(=O)[*:2]; 3Pal = N[C@@H](Cc1cccnc1)C(=O)O; ξThr(3R) = C[C@@H](O)C(N)C(=O)O; Lys(Me) = CNCCCC[C@H](N)C(=O)O; Pen = CC(C)(S)[C@H](N)C(=O)O; Thp = NC1(C(=O)O)CCOCC1; X3 = C[N+](C)(C)CCCCC*; Sar = CNCC(=O)O
How the values were obtained:
[1] = molecular target: T1, IL-23R (Homo sapiens, UniProt Q5VWK5); test: IL23R Reporter Assay; type: cell-based; settings: HEK293 cells containing IL-23R, IL-12RP1 and STAT-inducible firefly luciferase reporter; 10 ng/mL IL-23 (EC90); 5 h at 37° C.; read-out: IL23R Reporter Assay
T1 construct: host or cells: HEK293
T1 sequence (Q5VWK5 24-629): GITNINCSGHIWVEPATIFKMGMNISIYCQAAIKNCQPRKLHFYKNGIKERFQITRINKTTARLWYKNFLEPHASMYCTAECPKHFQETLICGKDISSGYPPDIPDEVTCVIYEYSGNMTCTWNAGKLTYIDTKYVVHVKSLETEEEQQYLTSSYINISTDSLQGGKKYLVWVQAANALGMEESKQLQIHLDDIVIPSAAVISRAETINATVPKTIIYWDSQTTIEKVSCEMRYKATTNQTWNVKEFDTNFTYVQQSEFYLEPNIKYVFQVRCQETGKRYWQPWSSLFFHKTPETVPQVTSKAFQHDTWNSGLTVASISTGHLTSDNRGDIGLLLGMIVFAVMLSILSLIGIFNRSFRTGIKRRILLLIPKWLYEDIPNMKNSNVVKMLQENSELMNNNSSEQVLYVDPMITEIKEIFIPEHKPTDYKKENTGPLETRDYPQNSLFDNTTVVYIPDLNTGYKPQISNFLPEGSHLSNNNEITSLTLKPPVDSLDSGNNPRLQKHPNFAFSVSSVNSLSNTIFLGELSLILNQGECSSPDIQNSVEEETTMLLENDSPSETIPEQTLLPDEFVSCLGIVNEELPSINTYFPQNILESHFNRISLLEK

[2] = Exposed Polar Surface Area (EPSA); type: physicochemical; settings: SFC on Chirex 3014 column; sample 1 mM DMSO stock; read-out: EPSA
In short: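 Polarity descriptor in Å² derived from retention time using 8 calibration standards re-run every 20 compounds. Duplicate injections of 1 mM DMSO stock; linear 5–60% modifier gradient (20 mM ammonium formate in MeOH) with CO2 at 4 mL/min, 35 °C, on a Chirex 3014 column.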

| IC50 [1] [nM] | EPSA [2] [A^2] | SMILES |
| --- | --- | --- |
| 25 | 151 | CC(=O)N(C)CCCC[C@H](NC(=O)[C@H](C)NC(=O)[C@H](Cc1ccc2ccccc2c1)NC(=O)[C@H](Cc1ccc(OCCOCCOCC[N+](C)(C)C)cc1)NC(=O)[C@H]1NC(=O)[C@H](C)NC(=O)[C@H](Cc2c[nH]c3c(C)cccc23)NC(=O)[C@H]([C@@H](C)O)NC(=O)[C@H](C)NC(=O)[C@@H](NC(=O)CCOCCOCC[N+](C)(C)C)C(C)(C)SSC1(C)C)C(=O)N[C@@H](CC(N)=O)C(=O)N[C@@H](Cc1cccnc1)C(=O)N(C)CC(=O)N(C)C [compound 468, cPEG3aCO-Pen(3)-A-T-7MeW-A-Pen(3)-APEG3f-2Nal-A-K(NMeAc)-N-3Pya-Sar-CON(Me)2] ({Me3N+(CH2)2O(CH2)2O(CH2)2CO}-[Pen]AT[Trp(7-Me)]A[Pen]Y(CH2CH2OCH2CH2OCH2CH2NMe3+)[2Nal]A[Lys(Me)](Ac)N[3Pal][Sar]-NMe2; disulfide 1-6) |
| 42 | 148 | CC(=O)N(C)CCCC[C@H](NC(=O)C1(NC(=O)[C@H](Cc2ccc3ccccc3c2)NC(=O)[C@H](Cc2ccc(OCCN)cc2)NC(=O)[C@H]2NC(=O)[C@H](COCCOCC[N+](C)(C)C)NC(=O)[C@H](Cc3c[nH]c4c(C)cccc34)NC(=O)[C@H]([C@@H](C)O)NC(=O)[C@H](CC(=O)N(C)C)NC(=O)[C@@H](NC(=O)CCOCCOCC[N+](C)(C)C)C(C)(C)SSC2(C)C)CCOCC1)C(=O)N[C@@H](CC(N)=O)C(=O)N[C@@H](Cc1cccnc1)C(=O)N(C)CC(=O)N(C)C [compound 245, cPEG3aCO-Pen(3)-N(N(Me)2)-T-7MeW-APEG2Ser-Pen(3)-AEF-2Nal-THP-K(NMeAc)-N-3Pya-Sar-CON(Me)2] ({Me3N+(CH2)2O(CH2)2O(CH2)2CO}-[Pen]D(NMe2)T[Trp(7-Me)]S(CH2CH2OCH2CH2NMe3+)[Pen][AEF][2Nal][Thp][Lys(Me)](Ac)N[3Pal][Sar]-NMe2; disulfide 1-6) |
| 3.4 | 164 | CC(=O)N(C)CCCC[C@H](NC(=O)[C@H](CC(C)C)NC(=O)[C@H](Cc1ccc2ccccc2c1)NC(=O)[C@H](Cc1ccc(OCCCCC[N+](C)(C)C)cc1)NC(=O)[C@H]1NC(=O)[C@H](CCCCN(C)C(C)=O)NC(=O)[C@H](Cc2c[nH]c3c(C)cccc23)NC(=O)C([C@@H](C)O)NC(=O)[C@H](CC(=O)N(C)C)NC(=O)[C@@H](NC(=O)CCOCCOCC[N+](C)(C)C)C(C)(C)SSC1(C)C)C(=O)N[C@@H](CC(N)=O)C(=O)N[C@@H](Cc1cccnc1)C(=O)N(C)CC(=O)N(C)C (stereo partly drawn) [compound 487, cPEG3aCO-Pen(3)-N(N(Me)2)-T-7MeW-K(NMeAc)-Pen(3)-TMAPf-2Nal-L-K(NMeAc)-N-3Pya-Sar-CON(Me)2] ({Me3N+(CH2)2O(CH2)2O(CH2)2CO}-[Pen]D(NMe2)[ξThr(3R)][Trp(7-Me)][Lys(Me)](Ac)[Pen]Y(X3)[2Nal]L[Lys(Me)](Ac)N[3Pal][Sar]-NMe2; disulfide 1-6) |
| 1.6 | 155 | COCCOCCOCC(=O)NCC[N+](C)(C)CC(=O)N[C@@H]1C(=O)N[C@@H](CC(=O)N(C)C)C(=O)N[C@@H]([C@@H](C)O)C(=O)N[C@@H](Cc2c[nH]c3c(C)cccc23)C(=O)N[C@@H](CCCCN(C)C(C)=O)C(=O)N[C@H](C(=O)N[C@@H](Cc2ccc(OCCN)cc2)C(=O)N[C@@H](Cc2ccc3ccccc3c2)C(=O)NC2(C(=O)N[C@@H](CCC(=O)N(C)C)C(=O)N[C@@H](CC(N)=O)C(=O)N[C@@H](Cc3cccnc3)C(=O)N(C)CC(N)=O)CCOCC2)C(C)(C)SSC1(C)C [compound 152, mPEG3CO-SP6-Pen(3)-N(N(Me)2)-T-7MeW-K(NMeAc)-Pen(3)-AEF-2Nal-THP-QNMe2-N-3Pya-Sar-CONH2] ({Decanoyl(3,6,9-trioxa)}-[X24][Pen]D(NMe2)T[Trp(7-Me)][Lys(Me)](Ac)[Pen][AEF][2Nal][Thp]E(NMe2)N[3Pal][Sar]-NH2; disulfide 2-7) |
